Assay results: PubChem BioAssay AID248 (DTP/NCI, 2004)
Several values for one entry are separate records, joined by “and”; a condition that tells them apart may be missing. Identical values can stand only once. Inconclusive results and toxic doses are left out.

Tested on: L1210 leukemia ip in BDF1 mice, survival T/C
Assay: NCI In Vivo Anticancer Drug Screen. Data for tumor model L1210 Leukemia (intraperitoneal) in B6D2F1 (BDF1) mice
Conditions: endpoint: mean survival time, higher = longer survival
Procedure, shortened: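 Transplantable tumor model; survival measured in treated vs vehicle control mice. Value = treated/control.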

[1] = dose: 100.0 mg/kg/injection, schedule: Q01DX009 (ip), vehicle: Klucel (hydroxypropylcellulose) (HPC)
[2] = dose: 200.0 mg/kg/injection, schedule: Q01DX009 (ip), vehicle: Klucel (hydroxypropylcellulose) (HPC)
[3] = dose: 400.0 mg/kg/injection, schedule: Q01DX009 (ip), vehicle: Klucel (hydroxypropylcellulose) (HPC)
[4] = dose: 50.0 mg/kg/injection, schedule: Q01DX009 (ip), vehicle: Klucel (hydroxypropylcellulose) (HPC)
[5] = dose: 100.0 mg/kg/injection, schedule: Q04DX003 (ip), vehicle: saline
[6] = dose: 200.0 mg/kg/injection, schedule: Q04DX003 (ip), vehicle: saline
[7] = dose: 400.0 mg/kg/injection, schedule: Q04DX003 (ip), vehicle: saline
[8] = dose: 100.0 mg/kg/injection, schedule: Q01DX001 (ip), vehicle: Klucel (hydroxypropylcellulose) (HPC)
[9] = dose: 100.0 mg/kg/injection, schedule: Q04DX003 (ip), vehicle: Klucel (hydroxypropylcellulose) (HPC)
[10] = dose: 200.0 mg/kg/injection, schedule: Q01DX001 (ip), vehicle: Klucel (hydroxypropylcellulose) (HPC)
[11] = dose: 200.0 mg/kg/injection, schedule: Q04DX003 (ip), vehicle: Klucel (hydroxypropylcellulose) (HPC)
[12] = dose: 400.0 mg/kg/injection, schedule: Q01DX001 (ip), vehicle: Klucel (hydroxypropylcellulose) (HPC)
[13] = dose: 400.0 mg/kg/injection, schedule: Q04DX003 (ip), vehicle: Klucel (hydroxypropylcellulose) (HPC)
[14] = dose: 100.0 mg/kg/injection, schedule: Q01DX001 (ip), vehicle: saline
[15] = dose: 100.0 mg/kg/injection, schedule: Q01DX009 (ip), vehicle: saline
[16] = dose: 200.0 mg/kg/injection, schedule: Q01DX001 (ip), vehicle: saline
[17] = dose: 200.0 mg/kg/injection, schedule: Q01DX009 (ip), vehicle: saline
[18] = dose: 400.0 mg/kg/injection, schedule: Q01DX001 (ip), vehicle: saline
[19] = dose: 400.0 mg/kg/injection, schedule: Q01DX009 (ip), vehicle: saline
[20] = dose: 75.0 mg/kg/injection, schedule: Q01DX001 (ip), vehicle: saline
[21] = dose: 150.0 mg/kg/injection, schedule: Q01DX001 (ip), vehicle: saline

For `CCCCCCCC/C=C\CCCCCCCC(=O)OCCCCCCCCCCCCCCCCC`, the T/C (dose: 75.0 mg/kg/injection, schedule: Q01DX009 (ip), vehicle: saline sonified) was 106 % of control, the T/C [1] was 94 % of control and the T/C (dose: 150.0 mg/kg/injection, schedule: Q01DX009 (ip), vehicle: saline sonified) was 104 % of control. For the same compound, the T/C [2] was 91 % of control, the T/C (dose: 300.0 mg/kg/injection, schedule: Q01DX009 (ip), vehicle: saline sonified) was 96 % of control and the T/C [3] was 110 % of control.
In the case of `C/C(=N\Nc1nc2ccccc2s1)c1ccncc1`, the T/C [4] is reported as 101 % of control, the T/C [1] is reported as 100 % of control and the T/C [2] is reported as 107 % of control. For the same compound, the T/C [3] was 101 % of control.
In the case of `CC(=O)Nc1ccc(C(=O)/C=C/C(=O)O)c(O)c1`, the T/C [5] is reported as 98 % of control, the T/C [6] is reported as 100 % of control and the T/C [7] is reported as 100 % of control.
With `Cc1c(C)c(NC(=O)N(CCCl)N=O)c(C)c(C)c1NC(=O)N(CCCl)N=O` the T/C (dose: 15.5 mg/kg/injection, schedule: Q01DX001 (ip), vehicle: other) was 120 % of control, the T/C (dose: 62.0 mg/kg/injection, schedule: Q01DX001 (ip), vehicle: other) was 152 % of control and the T/C (dose: 125.0 mg/kg/injection, schedule: Q01DX001 (ip), vehicle: other) was 159 % of control and 160 % of control and 207 % of control. For the same compound, the T/C (dose: 250.0 mg/kg/injection, schedule: Q01DX001 (ip), vehicle: other) was 203 % of control and 211 % of control and 252 % of control, the T/C (dose: 375.0 mg/kg/injection, schedule: Q01DX001 (ip), vehicle: other) was 237 % of control and the T/C (dose: 500.0 mg/kg/injection, schedule: Q01DX001 (ip), vehicle: other) was 223 % of control and 283 % of control. The T/C (dose: 501.0 mg/kg/injection, schedule: Q01DX001 (ip), vehicle: other) was 115 % of control, the T/C (dose: 750.0 mg/kg/injection, schedule: Q01DX001 (ip), vehicle: other) was 151 % of control and 238 % of control and the T/C (dose: 1000.0 mg/kg/injection, schedule: Q01DX001 (ip), vehicle: other) was 190 % of control.
With `CNc1cccc(C(=O)O)c1` the T/C [8] was 91 % of control, the T/C [9] was 113 % of control and the T/C [10] was 102 % of control. The T/C [11] was 107 % of control, the T/C [12] was 98 % of control and the T/C [13] was 97 % of control.
`C[N+](C)(C)c1ncnc2[n-]cnc12` was tested, and the T/C (dose: 50.0 mg/kg/injection, schedule: Q01DX015 (ip), vehicle: saline) was 110 % of control.
In the case of `CC(C)(C)C1C(=O)N1C(C)(C)C` (stereo not given), the T/C [1] is reported as 103 % of control, the T/C [9] is reported as 101 % of control and the T/C [2] is reported as 101 % of control. The T/C [11] was 97 % of control and the T/C [13] was 97 % of control.
For `CCCSCSCCC`, the T/C [14] was 105 % of control, the T/C [15] was 105 % of control and the T/C [5] was 98 % of control. For the same compound, the T/C [16] was 98 % of control, the T/C [17] was 97 % of control and the T/C [6] was 104 % of control. For the same compound, the T/C [18] was 98 % of control, the T/C [19] was 100 % of control and the T/C [7] was 97 % of control.
In the case of `O=NN(CCCl)C(=O)Nc1c[nH]c2ccccc12`, the T/C (dose: 118.0 mg/kg/injection, schedule: Q01DX009 (ip), vehicle: carboxymethylcellulose (CMC)) is reported as 116 % of control, the T/C (dose: 177.0 mg/kg/injection, schedule: Q01DX009 (ip), vehicle: carboxymethylcellulose (CMC)) is reported as 116 % of control and the T/C (dose: 266.0 mg/kg/injection, schedule: Q01DX009 (ip), vehicle: carboxymethylcellulose (CMC)) is reported as 123 % of control. The T/C (dose: 400.0 mg/kg/injection, schedule: Q01DX009 (ip), vehicle: carboxymethylcellulose (CMC)) was 124 % of control and the T/C (dose: 600.0 mg/kg/injection, schedule: Q01DX009 (ip), vehicle: carboxymethylcellulose (CMC)) was 156 % of control.
With `O=C(Cn1cc(F)c(=O)[nH]c1=O)c1cccs1` the T/C [15] was 89 % of control, the T/C [5] was 100 % of control and the T/C [17] was 89 % of control. For the same compound, the T/C [6] was 106 % of control, the T/C [19] was 89 % of control and the T/C [7] was 111 % of control.
In the case of `C=C(C)C1(CCCCC)C(=O)NC(=S)NC1=O`, the T/C [20] is reported as 100 % of control, the T/C [21] is reported as 102 % of control and the T/C (dose: 300.0 mg/kg/injection, schedule: Q01DX001 (ip), vehicle: saline) is reported as 95 % of control.
For `NNc1ccc(Br)cc1`, the T/C (dose: 100.0 mg/kg/injection, schedule: Q04DX002 (ip), vehicle: Klucel (hydroxypropylcellulose) (HPC)) was 102 % of control and the T/C (dose: 200.0 mg/kg/injection, schedule: Q04DX002 (ip), vehicle: Klucel (hydroxypropylcellulose) (HPC)) was 115 % of control.
For `CC12CCC(C1)C(C)(C)C2[N+]#N` (stereo not given), the T/C [20] was 105 % of control.
With `Cc1ccc(NS(=O)(=O)c2ccc(F)cc2)cc1Cl` the T/C [1] was 92 % of control, the T/C [9] was 100 % of control and the T/C [2] was 95 % of control. For the same compound, the T/C [11] was 97 % of control, the T/C [3] was 95 % of control and the T/C [13] was 97 % of control.
`Cc1cc(O)c(O)c(S(=O)(=O)c2ccc(N)cc2)c1` was tested, and the T/C (dose: 75.0 mg/kg/injection, schedule: Q01DX009 (ip), vehicle: carboxymethylcellulose (CMC)) was 93 % of control, the T/C (dose: 150.0 mg/kg/injection, schedule: Q01DX009 (ip), vehicle: carboxymethylcellulose (CMC)) was 89 % of control and the T/C (dose: 300.0 mg/kg/injection, schedule: Q01DX009 (ip), vehicle: carboxymethylcellulose (CMC)) was 86 % of control.
In the case of `CCCCCCCCCCCc1cccc2ccccc12`, the T/C (dose: 50.0 mg/kg/injection, schedule: Q04DX002 (ip), vehicle: saline with Tween-80) is reported as 92 % of control, the T/C (dose: 100.0 mg/kg/injection, schedule: Q04DX002 (ip), vehicle: saline with Tween-80) is reported as 89 % of control and the T/C (dose: 200.0 mg/kg/injection, schedule: Q04DX002 (ip), vehicle: saline with Tween-80) is reported as 92 % of control. For the same compound, the T/C (dose: 400.0 mg/kg/injection, schedule: Q04DX002 (ip), vehicle: saline with Tween-80) was 95 % of control.
In the case of `CCC1(/C=C/C(C)C)C(=O)NC(=O)NC1=O`, the T/C [20] is reported as 105 % of control and the T/C [21] is reported as 93 % of control.
In the case of `O=C(c1ccccc1)C1NC1c1ccc([N+](=O)[O-])cc1` (stereo not given), the T/C (dose: 50.0 mg/kg/injection, schedule: Q01DX001 (ip), vehicle: Klucel (hydroxypropylcellulose) (HPC)) is reported as 89 % of control, the T/C [8] is reported as 97 % of control and the T/C [10] is reported as 97 % of control. The T/C [12] was 92 % of control.
`CC(O)CN1CCCCCC1` (stereo not given) was tested, and the T/C (dose: 12.5 mg/kg/injection, schedule: Q01DX009 (ip), vehicle: saline with Tween-80) was 103 % of control, the T/C (dose: 25.0 mg/kg/injection, schedule: Q01DX009 (ip), vehicle: saline with Tween-80) was 94 % of control and the T/C (dose: 25.0 mg/kg/injection, schedule: Q04DX003 (ip), vehicle: saline with Tween-80) was 107 % of control. For the same compound, the T/C (dose: 50.0 mg/kg/injection, schedule: Q01DX009 (ip), vehicle: saline with Tween-80) was 93 % of control, the T/C (dose: 50.0 mg/kg/injection, schedule: Q04DX003 (ip), vehicle: saline with Tween-80) was 107 % of control and the T/C (dose: 100.0 mg/kg/injection, schedule: Q04DX003 (ip), vehicle: saline with Tween-80) was 95 % of control.
In the case of `CCCCCCCCCCNC(=O)C[n+]1cccc(C(=O)Nc2ccc(Cl)cc2)c1`, the T/C (dose: 6.25 mg/kg/injection, schedule: Q01DX009 (ip), vehicle: acetone) is reported as 97 % of control, the T/C (dose: 12.5 mg/kg/injection, schedule: Q01DX009 (ip), vehicle: acetone) is reported as 92 % of control and the T/C (dose: 12.5 mg/kg/injection, schedule: Q04DX003 (ip), vehicle: saline) is reported as 108 % of control. For the same compound, the T/C (dose: 25.0 mg/kg/injection, schedule: Q04DX003 (ip), vehicle: saline) was 96 % of control.
For `CC(=O)OCc1ccnc2ccc(OC(C)=O)cc12`, the T/C [14] was 100 % of control, the T/C [16] was 98 % of control and the T/C [18] was 96 % of control.
`COc1ccccc1C(=O)N/N=C/c1ccccc1Cl` was tested, and the T/C (dose: 25.0 mg/kg/injection, schedule: Q01DX009 (ip), vehicle: Klucel (hydroxypropylcellulose) (HPC)) was 96 % of control, the T/C [4] was 96 % of control and the T/C [1] was 104 % of control and 105 % of control. For the same compound, the T/C [9] was 108 % of control, the T/C [2] was 108 % of control and the T/C [11] was 111 % of control. The T/C [3] was 103 % of control and the T/C [13] was 108 % of control.
For `CC(c1ccccc1)n1cnc2c(Cl)ncnc21` (stereo not given), the T/C [14] was 98 % of control, the T/C [16] was 101 % of control and the T/C [18] was 110 % of control.
`Nc1ccc(N=Nc2ccc(OCCN(CCO)CCO)cc2)c(N)n1` was tested, and the T/C [14] was 93 % of control and the T/C [16] was 98 % of control.
